Consider 36 molecules from the supplement of paper PMC11003180.

Holding throughout (test): drug sensitivity score (DSS) from 5-dose viability curve (DSS (area-based score, 0 = no response)); higher = more sensitive (stronger viability inhibition); extreme values may be limits of the assay
Test [1] concerns MDCK p60AmotL2-inducible + doxycycline (p60AmotL2 expressing). The conditions noted are these: doxycycline: 10 ng/mL; 72 h. In outline: (§1)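 Parental MDCK cells and MDCK cells with doxycycline-inducible p60AmotL2, both given doxycycline at 10 ng/mL in the medium before plating, were dispensed at 2000 cells/well onto pre-spotted 384-well plates. The plates held an oncology library of 528 drugs at five doses (1-10,000 nM) and were incubated 72 h at 37 °C. Viability was read as CellTiter-Glo luminescence and scaled per plate between vehicle and positive controls. Drug sensitivity scores came from dose-response curve fits in the Breeze pipeline.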

Test [2] deals with MDCK wild-type + doxycycline. The conditions noted are these: doxycycline: 10 ng/mL; 72 h. In outline:
as §1

Test [3] relates to MDCK wild-type - doxycycline. The conditions noted are these: doxycycline: none; 72 h. In outline:
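For 72 h at 37 °C, parental MDCK cells (no doxycycline, 2000 cells/well) were incubated on 384-well plates pre-spotted with 528 oncology drugs at five doses from 1 to 10,000 nM. CellTiter-Glo luminescence served as the viability readout, scaled per plate between vehicle and positive controls. The Breeze pipeline then fitted dose-response curves to yield drug sensitivity scores.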

With `N#CC[C@H](C1CCCC1)n1cc(-c2ncnc3[nH]ccc23)cn1` [Ruxolitinib], the drug sensitivity score in test [1], in test [2] and in test [3] was 0 each time.

Turning to `CC(C)N(CCCNC(=O)Nc1ccc(C(C)(C)C)cc1)C[C@H]1O[C@@H](n2cc(Br)c3c(N)ncnc32)[C@H](O)[C@@H]1O` [SGC0946], the drug sensitivity score in test [1], in test [2] and in test [3] was 0 in each case.

Regarding `COc1ccc(CCc2nc3cc(-c4c(C)noc4C)ccc3n2C[C@H](C)N2CCOCC2)cc1Cl` [SGC-CBP30], the figures for the drug sensitivity score in test [1], in test [2] and in test [3] were 4.3, 2.7 and 0, respectively.

As for `CN1CCC(CNc2ccc3ncc(-c4cccc(OC(F)(F)F)c4)n3n2)CC1` [SGI-1776], the results for the drug sensitivity score in test [1], in test [2] and in test [3] were 7.5, 6.3 and 6.6, respectively.

For the molecule `CN(CC(=O)N(Cc1ccc(C2CCCCC2)cc1)c1ccc(C(=O)O)cc1)S(=O)(=O)c1c(F)c(F)c(F)c(F)c1F` [SH-4-54], the figures for the drug sensitivity score in test [1], in test [2] and in test [3] were 3.7, 3.9 and 5.1, respectively.

Consider `CCc1c2c(nc3ccc(O)cc13)-c1cc3c(c(=O)n1C2)COC(=O)[C@]3(O)CC` [SN-38], for which the drug sensitivity score in test [1] was determined as 24.8; in test [2], 23.3; in test [3], 21.1.

As for `CC(C)(C)c1cnc(CSc2cnc(NC(=O)C3CCNCC3)s2)o1` [SNS-032], the values for the drug sensitivity score in test [1], in test [2] and in test [3] were 19.1, 17.8 and 16.3, respectively.

On to `Cc1cc2c(C(=O)NC[C@H](C)c3ccccc3)c(O)c(O)cc2c(O)c1-c1c(C)cc2c(C(=O)NC[C@H](C)c3ccccc3)c(O)c(O)cc2c1O` [Sabutoclax], for which the drug sensitivity score was 23 in test [1], 19.3 in test [2] and 13.9 in test [3].

Consider `CC[C@@H](C(=O)[C@@H](C)[C@@H](O)[C@H](C)[C@@H]1O[C@@H]([C@@H](CC)C(=O)O)CC[C@@H]1C)[C@H]1O[C@]2(C=C[C@@H](O)[C@]3(CC[C@@](C)([C@H]4CC[C@](O)(CC)[C@H](C)O4)O3)O2)[C@H](C)C[C@@H]1C` [Salinomycin], for which the results for the drug sensitivity score in test [1], in test [2] and in test [3] were 18.7, 0.9 and 0.4, respectively.

Turning to `CC(C)n1nc(-c2ccc3oc(N)nc3c2)c2c(N)ncnc21` [Sapanisertib], the drug sensitivity score in test [1] came to 13.4; in test [2], 9.8; in test [3] it was 8.1.

Take `CNC(=O)CN1CCC(Oc2cc3c(Nc4cccc(Cl)c4F)ncnc3cc2OC)CC1` [Sapitinib]: the drug sensitivity score in test [1] turned out to be 12.9; in test [2] it was 4.5; in test [3] it was 1.2.

For `CN1CCN(CCOc2cc(OC3CCOCC3)c3c(Nc4c(Cl)ccc5c4OCO5)ncnc3c2)CC1` [Saracatinib], the drug sensitivity score in test [1] was 19.5; in test [2], 12.6; in test [3], 12.6.

Turning to `CC1=C2C[C@H]3[C@@H](CC[C@@H]4C[C@H](NS(C)(=O)=O)CC[C@@]43C)[C@@H]2CC[C@@]2(C1)O[C@@H]1C[C@H](C)CN[C@H]1[C@H]2C` [Saridegib], the drug sensitivity score in test [1] was found to be 0.8; in test [2] it was 0; in test [3], 0.

As to `CC[C@H](CO)Nc1nc(NCc2ccccc2)c2ncn(C(C)C)c2n1` [Seliciclib], the drug sensitivity score in test [1] was 2.4; in test [2], 1.2; in test [3], 0.

As for `O=C(/C=C\n1cnc(-c2cc(C(F)(F)F)cc(C(F)(F)F)c2)n1)NNc1cnccn1` [Selinexor], the drug sensitivity score was determined as 16.7 in test [1], 16.4 in test [2] and 15.1 in test [3].

For the molecule `Cc1cc(F)c(C(=O)Nc2cccc(-c3nncn3C(C)C)n2)cc1-n1cnc(C2CC2)c1` [Selonsertib], the drug sensitivity score in test [1], in test [2] and in test [3] was 0 in each case.

With `Cn1cnc2c(F)c(Nc3ccc(Br)cc3Cl)c(C(=O)NOCCO)cc21` [Selumetinib], the drug sensitivity score turned out to be 10.1 in test [1], 4.1 in test [2] and 0.9 in test [3].

As for `CN1CCN(C(=O)c2ccc3cc(CCNc4ncnc5ccc(C#N)cc45)ccc3c2)CC1` [Senexin B], the drug sensitivity score in test [1] worked out at 0.6; in test [2], 0.1; in test [3] it was 0.

Take `COCC[n+]1c2c(n(Cc3cnccn3)c1C)C(=O)c1ccccc1C2=O` [Sepantronium bromide]: the drug sensitivity score came to 34.3 in test [1], 30.1 in test [2] and 26.6 in test [3].

As to `Nc1nc2cc(-c3ccc4ncc(C(=O)N5CCOCC5)n4c3)ccc2o1` [Serabelisib], the values for the drug sensitivity score in test [1], in test [2] and in test [3] were 1.3, 0.1 and 0, respectively.

Regarding `O=C(O)c1ccc2c(c1)nc(Nc1cccc(Cl)c1)c1ccncc12` [Silmitasertib], the drug sensitivity score in test [1] is 1.6; in test [2], 1.4; in test [3], 0.

For `CO[C@H]1C[C@@H]2CC[C@@H](C)[C@@](O)(O2)C(=O)C(=O)N2CCCC[C@H]2C(=O)O[C@H]([C@H](C)C[C@@H]2CC[C@@H](O)[C@H](OC)C2)CC(=O)[C@H](C)/C=C(\C)[C@@H](O)[C@@H](OC)C(=O)[C@H](C)C[C@H](C)/C=C/C=C/C=C/1C` [Sirolimus], the values for the drug sensitivity score in test [1], in test [2] and in test [3] were 7.6, 2.3 and 1.9, respectively.

As to `COCCNCc1ccc(-c2cc3nccc(Oc4ccc(NC(=O)C5(C(=O)Nc6ccc(F)cc6)CC5)cc4F)c3s2)nc1` [Sitravatinib], the drug sensitivity score was 1.7 in test [1], 1.2 in test [2] and 0 in test [3].

For the molecule `Cc1c(C(=O)Nc2ccc(N3C[C@@H](C)O[C@@H](C)C3)nc2)cccc1-c1ccc(OC(F)(F)F)cc1` [Sonidegib], the values for the drug sensitivity score in test [1], in test [2] and in test [3] were 0, 0 and 0.6, respectively.

Consider `C=CCN(/C=C1/C(=O)O[C@H](COC)[C@@]2(C)C1=C(O)C(=O)C1=C2[C@H](OC(C)=O)C[C@]2(C)C(=O)CC[C@@H]12)CC=C` [Sonolisib], for which the drug sensitivity score in test [1], in test [2] and in test [3] was 0 throughout.

As to `CNC(=O)c1cc(Oc2ccc(NC(=O)Nc3ccc(Cl)c(C(F)(F)F)c3)cc2)ccn1` [Sorafenib], the drug sensitivity score in test [1], in test [2] and in test [3] was 0 in each case.

As for `CN1CCN(c2nc(C3=C(c4c[nH]c5ccccc45)C(=O)NC3=O)c3ccccc3n2)CC1` [Sotrastaurin], the drug sensitivity score is 0.3 in test [1], 0 in test [2] and 0 in test [3].

Turning to `C=CC(=O)Nc1cccc(Nc2nc(Nc3ccc(OCCOC)cc3)ncc2F)c1` [Spebrutinib], the drug sensitivity score in test [1] is 0.8; in test [2], 0; in test [3], 0.

For the molecule `CC(C)n1cnc2c(NCCc3ccc(O)cc3)nc(-c3csc4ccccc34)nc21` [StemRegenin 1], the drug sensitivity score in test [1] turned out to be 1.5; in test [2], 0.9; in test [3] it was 2.

Regarding `CCN(CC)CCNC(=O)c1c(C)[nH]c(/C=C2\C(=O)Nc3ccc(F)cc32)c1C` [Sunitinib], the drug sensitivity score in test [1] turned out to be 1.2; in test [2], 0; in test [3] it was 0.

Turning to `CC(C)(O)CC(=O)NCCn1ccc2ncnc(Nc3ccc(Oc4cccc(C(F)(F)F)c4)c(Cl)c3)c21` [TAK-285], the values for the drug sensitivity score in test [1], in test [2] and in test [3] were 6.4, 3.1 and 1.8, respectively.

For the molecule `CCS(=O)(=O)c1cccc(-c2cc(C(=O)NC3CCN(C)CC3)c(C)c3[nH]c4ncc(C)cc4c23)c1` [TAK-901], the values for the drug sensitivity score in test [1], in test [2] and in test [3] were 1.8, 0.7 and 0, respectively.

As for `Cc1cccc(-c2[nH]c(CNc3ccccc3F)nc2-c2ccc3ncnn3c2)n1` [TEW-7197], the figures for the drug sensitivity score in test [1], in test [2] and in test [3] were 4.3, 0 and 1.1, respectively.

For `Nc1nc(N)c2nc(-c3cccc(O)c3)c(-c3cccc(O)c3)nc2n1` [TG100-115], the drug sensitivity score in test [1], in test [2] and in test [3] was 0 in each case.

For `CC(C)Oc1ccc(-c2nn([C@@H](C)c3oc4ccc(F)cc4c(=O)c3-c3cccc(F)c3)c3ncnc(N)c23)cc1F` [TGR-1202], the drug sensitivity score in test [1] was found to be 3.9; in test [2], 2.1; in test [3] it was 0.

For the molecule `Cc1cc(C(C)Nc2ccccc2)c2nc(N3CCOCC3)cc(=O)n2c1` (stereo not drawn) [TGX-221], the values for the drug sensitivity score in test [1], in test [2] and in test [3] were 0.3, 0.4 and 0, respectively.
